Legend:
Assay type in all cases: in vivo
[1] = system: barnyardgrass (Echinochloa crus-galli); test: Test B flooded paddy test; details: Rate 1000 g/ha, scale of 0 to 100 where 0 is no effect and 100 is complete control, visually evaluated after 13 to 15 days
Method: (§1) At the same time, plants selected from these crop and weed species and also blackgrass (Alopecurus myosuroides), wheat (Triticum aestivum) and wild oat (Avena fatua) were treated with postemergence applications of test chemicals formulated in the same manner. Plants ranged in height from 2 to 18 cm (1- to 4-leaf stage) for postemergence treatments. Plant species in the flooded paddy test consisted of rice (Oryza saliva), smallflower flatsedge (Cyperus difformis), duck salad (Heteranthera limosa) and barnyardgrass (Echinochloa crus-galli) grown to the 2-leaf stage for testing. Treated plants and controls were maintained in a greenhouse for 13 to 15 days, after which time all species were compared to controls and visually evaluated. Plant response ratings, summarized in Table B, are based on a scale of 0 to 100 where 0 is no effect and 100 is complete control. A dash (-) response means no test result.

[2] = system: smallflower flatsedge (Cyperus difformis); test: Test B flooded paddy test; details: Rate 1000 g/ha, scale of 0 to 100 where 0 is no effect and 100 is complete control, visually evaluated after 13 to 15 days
Method: as §1

rice (Oryza saliva) [3] = test: Test B flooded paddy test; details: Rate 1000 g/ha, scale of 0 to 100 where 0 is no effect and 100 is complete control, visually evaluated after 13 to 15 days
Method: as §1

[4] = system: duck salad (Heteranthera limosa); test: Test B flooded paddy test; details: Rate 1000 g/ha, scale of 0 to 100 where 0 is no effect and 100 is complete control, visually evaluated after 13 to 15 days
Method: as §1

[5] = system: barnyardgrass (Echinochloa crus-galli); test: Test B postemergence; details: 13 to 15 days
Summary of the method: (§2)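 Greenhouse test: chemicals are formulated in a surfactant-containing non-phytotoxic solvent and applied either preemergence to planted seeds or postemergence to plants 2 to 18 cm tall. Response is rated visually versus controls after 13 to 15 days, 0 meaning no effect and 100 complete control.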

[6] = system: giant foxtail (Setaria faberii); test: Test B postemergence; details: 13 to 15 days
Summary of the method: as §2

[7] = system: pigweed (Amaranthus retroflexus); test: Test B postemergence; details: 13 to 15 days
Summary of the method: as §2

[8] = system: cocklebur (Xanthium strumarium); test: Test B postemergence; details: 13 to 15 days
Summary of the method: as §2

corn (Zea mays) [9] = test: Test B postemergence; details: 13 to 15 days
Summary of the method: as §2

[10] = system: blackgrass (Alopecurus myosuroides); test: Test B postemergence; details: 13 to 15 days
Summary of the method: as §2

wild oat (Avena fatua) = test: Test B postemergence; details: 13 to 15 days
Summary of the method: as §2

[11] = system: lambsquarters (Chenopodium album); test: Test B postemergence; details: 13 to 15 days
Summary of the method: as §2

[12] = system: morning glory (Ipomoea hederacea); test: Test B postemergence; details: 13 to 15 days
Summary of the method: as §2

[13] = system: wheat (Triticum aestivum); test: Test B postemergence; details: 13 to 15 days
Summary of the method: as §2

[14] = system: velvetleaf (Abutilon theophrasti); test: Test B postemergence; details: 13 to 15 days
Summary of the method: as §2

[15] = system: crabgrass (Digitaria sanguinalis); test: Test B postemergence; details: 13 to 15 days
Summary of the method: as §2

[16] = system: Surinam grass (Brachiaria decumbens); test: Test B postemergence; details: 13 to 15 days
Summary of the method: as §2

[17] = system: barnyardgrass (Echinochloa crus-galli); test: Test B preemergence; details: scale 0 to 100, 0 no effect, 100 complete control
Summary of the method: as §2

[18] = system: giant foxtail (Setaria faberii); test: Test B preemergence; details: scale 0 to 100, 0 no effect, 100 complete control
Summary of the method: as §2

[19] = system: pigweed (Amaranthus retroflexus); test: Test B preemergence; details: Preemergence, Rate 500 g/ha; scale 0 to 100, 0 no effect, 100 complete control
Summary of the method: as §2

[20] = system: cocklebur (Xanthium strumarium); test: Test B preemergence; details: scale 0 to 100, 0 no effect, 100 complete control
Summary of the method: as §2

corn (Zea mays) [21] = test: Test B preemergence; details: scale 0 to 100, 0 no effect, 100 complete control
Summary of the method: as §2

rice (Oryza saliva) [22] = test: Test B preemergence; details: Preemergence, Rate 500 g/ha; scale 0 to 100, 0 no effect, 100 complete control
Summary of the method: as §2

[23] = system: lambsquarters (Chenopodium album); test: Test B preemergence; details: scale 0 to 100, 0 no effect, 100 complete control
Summary of the method: as §2

[24] = system: morning glory (Ipomoea hederacea); test: Test B preemergence; details: Preemergence, Rate 500 g/ha; scale 0 to 100, 0 no effect, 100 complete control
Summary of the method: as §2

[25] = system: velvetleaf (Abutilon theophrasti); test: Test B preemergence; details: Preemergence, Rate 500 g/ha; scale 0 to 100, 0 no effect, 100 complete control
Summary of the method: as §2

[26] = system: crabgrass (Digitaria sanguinalis); test: Test B preemergence; details: scale 0 to 100, 0 no effect, 100 complete control
Summary of the method: as §2

[27] = system: Surinam grass (Brachiaria decumbens); test: Test B preemergence; details: scale 0 to 100, 0 no effect, 100 complete control
Summary of the method: as §2

[28] = Rate 125 g/ha, scale 0 (no effect) to 100 (complete control)
[29] = Rate 500 g/ha, scale 0 to 100, 0 is no effect, 100 is complete control

Cc1ccc(N2CCC(n3ccc(C(C)(C)C)n3)C2=O)cc1Br (centres unmarked) [Compound 35]
Plant response rating, Barnyardgrass [1]: 60
Plant response rating, Flatsedge [2]: 100
Plant response rating, Rice (rice (Oryza saliva) [3]): 0
Plant response rating, Ducksalad [4]: 0
Plant response rating, Barnyardgrass [5, 28]: 0
Plant response rating, Barnyardgrass [5, 29]: 40
Plant response rating, Foxtail, Giant [6, 28]: 0
Plant response rating, Foxtail, Giant [6, 29]: 0
Plant response rating, Pigweed [7, 28]: 90
Plant response rating, Pigweed [7, 29]: 90
Plant response rating, Cocklebur [8, 28]: 40
Plant response rating, Cocklebur [8, 29]: 40
Plant response rating, Corn (corn (Zea mays) [9]; [28]): 0
Plant response rating, Corn (corn (Zea mays) [9]; [29]): 0
Plant response rating, Blackgrass [10, 28]: 0
Plant response rating, Blackgrass [10, 29]: 0
Plant response rating, Wild Oat (wild oat (Avena fatua); [28]): 0
Plant response rating, Wild Oat (wild oat (Avena fatua); [29]): 0
Plant response rating, Lambsquarters [11, 28]: 0
Plant response rating, Lambsquarters [11, 29]: 80
Plant response rating, Morningglory [12, 28]: 0
Plant response rating, Morningglory [12, 29]: 20
Plant response rating, Wheat [13, 28]: 0
Plant response rating, Wheat [13, 29]: 0
Plant response rating, Velvetleaf [14, 28]: 0
Plant response rating, Velvetleaf [14, 29]: 0
Plant response rating, Crabgrass [15, 28]: 0
Plant response rating, Crabgrass [15, 29]: 0
Plant response rating, Surinam grass [16, 28]: 0
Plant response rating, Surinam grass [16, 29]: 0
Plant response rating, Barnyardgrass ([17]; Preemergence, Rate 500 g/ha): 60
Plant response rating, Barnyardgrass ([17]; preemergence, Rate 125 g/ha): 0
Plant response rating, Foxtail, Giant ([18]; Preemergence, Rate 500 g/ha): 0
Plant response rating, Foxtail, Giant ([18]; preemergence, Rate 125 g/ha): 0
Plant response rating, Pigweed [19]: 100
Plant response rating, Cocklebur ([20]; Preemergence, Rate 500 g/ha): 0
Plant response rating, Cocklebur ([20]; preemergence, Rate 125 g/ha): 0
Plant response rating, Corn (corn (Zea mays) [21]; Preemergence, Rate 500 g/ha): 0
Plant response rating, Corn (corn (Zea mays) [21]; preemergence, Rate 125 g/ha): 0
Plant response rating, Rice (rice (Oryza saliva) [22]): 0
Plant response rating, Lambsquarters ([23]; Preemergence, Rate 500 g/ha): 100
Plant response rating, Lambsquarters ([23]; preemergence, Rate 125 g/ha): 0
Plant response rating, Morningglory [24]: 0
Plant response rating, Velvetleaf [25]: 0
Plant response rating, Crabgrass ([26]; Preemergence, Rate 500 g/ha): 100
Plant response rating, Crabgrass ([26]; preemergence, Rate 125 g/ha): 0
Plant response rating, Surinam grass ([27]; Preemergence, Rate 500 g/ha): 0
Plant response rating, Surinam grass ([27]; preemergence, Rate 125 g/ha): 0

Cc1ccc(N2CCC(n3ccc(C(C)(C)C)n3)C2=O)cc1Cl (centres unmarked) [Compound 41]
Plant response rating, Barnyardgrass [1]: 70
Plant response rating, Flatsedge [2]: 100
Plant response rating, Rice (rice (Oryza saliva) [3]): 40
Plant response rating, Ducksalad [4]: 70
Plant response rating, Barnyardgrass [5, 28]: 0
Plant response rating, Barnyardgrass [5, 29]: 70
Plant response rating, Foxtail, Giant [6, 28]: 0
Plant response rating, Foxtail, Giant [6, 29]: 0
Plant response rating, Pigweed [7, 28]: 0
Plant response rating, Pigweed [7, 29]: 80
Plant response rating, Cocklebur [8, 28]: 0
Plant response rating, Cocklebur [8, 29]: 0
Plant response rating, Corn (corn (Zea mays) [9]; [29]): 0
Plant response rating, Blackgrass [10, 28]: 0
Plant response rating, Blackgrass [10, 29]: 0
Plant response rating, Wild Oat (wild oat (Avena fatua); [28]): 0
Plant response rating, Wild Oat (wild oat (Avena fatua); [29]): 0
Plant response rating, Lambsquarters [11, 28]: 0
Plant response rating, Lambsquarters [11, 29]: 60
Plant response rating, Morningglory [12, 28]: 0
Plant response rating, Morningglory [12, 29]: 20
Plant response rating, Wheat [13, 28]: 0
Plant response rating, Wheat [13, 29]: 0
Plant response rating, Velvetleaf [14, 28]: 0
Plant response rating, Velvetleaf [14, 29]: 0
Plant response rating, Crabgrass [15, 28]: 0
Plant response rating, Crabgrass [15, 29]: 40
Plant response rating, Surinam grass [16, 28]: 0
Plant response rating, Surinam grass [16, 29]: 0
Plant response rating, Barnyardgrass ([17]; Preemergence, Rate 500 g/ha): 100
Plant response rating, Barnyardgrass ([17]; preemergence, Rate 125 g/ha): 40
Plant response rating, Foxtail, Giant ([18]; Preemergence, Rate 500 g/ha): 60
Plant response rating, Foxtail, Giant ([18]; preemergence, Rate 125 g/ha): 0
Plant response rating, Pigweed [19]: 100
Plant response rating, Cocklebur ([20]; Preemergence, Rate 500 g/ha): 0
Plant response rating, Cocklebur ([20]; preemergence, Rate 125 g/ha): 0
Plant response rating, Corn (corn (Zea mays) [21]; Preemergence, Rate 500 g/ha): 0
Plant response rating, Corn (corn (Zea mays) [21]; preemergence, Rate 125 g/ha): 0
Plant response rating, Rice (rice (Oryza saliva) [22]): 0
Plant response rating, Lambsquarters ([23]; Preemergence, Rate 500 g/ha): 100
Plant response rating, Lambsquarters ([23]; preemergence, Rate 125 g/ha): 100
Plant response rating, Morningglory [24]: 0
Plant response rating, Velvetleaf [25]: 0
Plant response rating, Crabgrass ([26]; Preemergence, Rate 500 g/ha): 0
Plant response rating, Crabgrass ([26]; preemergence, Rate 125 g/ha): 0
Plant response rating, Surinam grass ([27]; Preemergence, Rate 500 g/ha): 0
Plant response rating, Surinam grass ([27]; preemergence, Rate 125 g/ha): 0

From patent publication US7138361B2, “Herbicidal heterocycles” (E. I. du Pont de Nemours and Company, priority 2000, dated 2006)
